Measurements as given in patent US20240408169A1 (priority 2023, published 2024).
Like-named read-outs stand apart in the source and are kept apart here. *1 amine or outer side, *2 acyl side, *3 side chain or, on linkers, in order; H or OH if unused. Where a SMILES comes first, the peptide text is derived from it. Bridges are numbered along the chain shown (N, C = ends). [ ]: non-standard residue; d: D form. The star is where a group is joined. X7 = CC(C)C(=O)N1[C@H]2CC[C@@H]1C=C(c1ccc(F)cc1C[C@@H](C(=O)[*:2])N(C)[*:1])C2; NMePhe(2-(4-MorPh),5-Cl) = CN[C@@H](Cc1cc(Cl)ccc1-c1ccc(N2CCOCC2)cc1)C(=O)O; X13 = CN([C@@H](Cc1cc(Cl)ccc1-c1cnn(CCS(C)(=O)=O)c1)C(=O)[*:2])[*:1]; X113 = Cc1cc(-c2ccc(Cl)cc2C[C@@H](C(=O)[*:2])N(C)[*:1])n(C)n1; X19 = CN([C@@H](Cc1cc(Cl)ccc1-c1ccn2ccnc2c1)C(=O)[*:2])[*:1]; NMehhhLys(Me) = CN([C@@H](CCCCCCCN(C)[*:3])C(=O)[*:2])[*:1]; X94 = CN([C@@H](Cc1cc(F)ccc1C1CC1)C(=O)[*:2])[*:1]; cBuCO(3,3-F2-1-CF3) = O=C(C1(C(F)(F)F)CC(F)(F)C1)*; Pro(trans-4-F) = O=C(O)[C@@H]1C[C@@H](F)CN1; Pivaloyl(3,3,3-F3) = CC(C)(C(=O)*)C(F)(F)F; Gly(cPr) = N[C@H](C(=O)O)C1CC1; X102 = C[C@]1(C(=O)*)CC1(F)F

Tests used:
CyclinA2/CDK2 = biological target: T1, CyclinA2/CDK2 (Homo sapiens, UniProt P20248); assay: Fluorescence Polarization (FP) competitive binding assay, Cyclin A2/Cdk2;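 further: plates equilibrated two hours at room temperature before polarization reading, IC50 fitted from eight-concentration compound titration curves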
T1 construct: purchased CRELUX Protein Services

OVCAR3 cells = assay: MTT proliferation assay, OVCAR3; assay type: cell-based; details: 5 days compound exposure, 1:3 serial dilution starting at 10 μM;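 further: compound given as an 8- or 10-point series, one day after plating, with exposure covering roughly 3-4 cell doublings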
CyclinB1/CDK1 = biological target: T2, CyclinB1/CDK1 (Homo sapiens, UniProt P14635); assay: Fluorescence Polarization (FP) competitive binding assay, Cyclin B1/Cdk1;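 further: fluorescence polarization read after equilibration at room temperature, with IC50 taken from serially diluted dose-response curves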
T2 construct: purchased Eurofins, discovery 14-450

CyclinE1/CDK2 = biological target: T3, CyclinE1/CDK2 (Homo sapiens, UniProt P24864); assay: Fluorescence Polarization (FP) competitive binding assay, Cyclin E1/Cdk2;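 further: readings taken after two-hour equilibration at room temperature in HEPES buffer with NaCl, DTT, NP-40 and BSA, IC50 fitted from eight-concentration serial dilution series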
T3 construct: purchased Eurofins, discovery 14-475

NCI-H1048 cells = assay: MTT proliferation assay, NCI-H1048; assay type: cell-based; details: 5 days compound exposure, 1:3 serial dilution starting at 10 μM;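 further: Dose-response in 96-well plates over 8 or 10 concentration points, with exposure spanning 3-4 cell doublings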
WI-38 cells = assay: MTT proliferation assay, WI-38; assay type: cell-based; details: 3 days compound exposure, 1:3 serial dilution starting at 10 μM;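 further: Eight- or ten-point dilution series, with exposure length chosen to span about three to four cell doublings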
[1] = 8 nM Cyclin A2/Cdk2, 2 nM FAM probe, average of 2-3 independent experiments, read-out: Cyclin A FP IC50
[2] = 10 nM Cyclin B1/Cdk1, 2 nM FAM probe; average of 2-3 independent experiments; read-out: Cyclin B FP IC50
[3] = 10 nM Cyclin E1/Cdk2, 2 nM FAM probe, average of 2-3 independent experiments, read-out: Cyclin E FP IC50

Compound | IC50 (CyclinA2/CDK2; [1]) | GI50 (OVCAR3 cells) | IC50 (CyclinB1/CDK1; [2]) | IC50 (CyclinE1/CDK2; [3]) | GI50 (NCI-H1048 cells) | GI50 (WI-38 cells) | IC50 (CyclinA2/CDK2) | IC50 (CyclinB1/CDK1; read-out: Cyclin B FP IC50; 10 nM Cyclin B1/Cdk1, 2 nM FAM probe; average of 2-3 independent experiments) | IC50 (CyclinE1/CDK2)
CC[C@H](NC(=O)C1(C(F)(F)F)CC1)C(=O)N[C@@H](C)C(=O)N[C@H]1CC=CCCCCNC(=O)[C@H](Cc2cc(Cl)ccc2Cl)N(C)C(=O)[C@H](CC(C)C)NC1=O [Example 1, N—((S)-1-(((S)-1-(((3S,6S,9S)-3-(2,5-dichlorobenzyl)-6-isobutyl-4-methyl-2,5,8-trioxo-1,4,7-triazacyclohexadec-11-en-9-yl)amino)-1-oxopropan-2-yl)amino)-1-oxobutan-2-yl)-1-(trifluoromethyl)cyclopropane-1-carboxamide] | 210 nM | 6610 nM | 20 nM | 440 nM | 4000 nM | 14600 nM |  |  | 
Cc1cc(-c2ccc(Cl)cc2C[C@H]2C(=O)N(C)CCCCCCC[C@H](N(C)C(=O)[C@@H](NC(=O)[C@@H]3C[C@@H](F)CN3C(=O)C3(C(F)(F)F)CC(F)(F)C3)C3CC3)C(=O)N[C@@H](CC(C)C)C(=O)N2C)n(C)n1 [Example 235] ({cBuCO(3,3-F2-1-CF3)}-[Pro(trans-4-F)][Gly(cPr)][NMehhhLys(Me)]L[X113]; lactam 3-C) |  | 90 nM |  |  | 100 nM | 13200 nM | 140 nM | 20 nM | 6080 nM
CC(C)C[C@@H]1NC(=O)[C@@H](N(C)C(=O)[C@@H](NC(=O)[C@@H]2C[C@@H](F)CN2C(=O)[C@@]2(C)CC2(F)F)C2CC2)CCCCCCCN(C)C(=O)[C@H](Cc2cc(Cl)ccc2-c2ccc(N3CCOCC3)cc2)N(C)C1=O [Example 400] (X102-[Pro(trans-4-F)][Gly(cPr)][NMehhhLys(Me)]L[NMePhe(2-(4-MorPh),5-Cl)]; lactam 3-C) | 20 nM | 10 nM | 20 nM | 490 nM | 10 nM | 4610 nM |  |  | 
CC(C)C[C@@H]1NC(=O)[C@@H](N(C)C(=O)[C@@H](NC(=O)[C@@H]2C[C@@H](F)CN2C(=O)C(C)(C)C(F)(F)F)C2CC2)CCCCCCCN(C)C(=O)[C@H](Cc2cc(Cl)ccc2-c2ccc(N3CCOCC3)cc2)N(C)C1=O [Example 335] ({Pivaloyl(3,3,3-F3)}-[Pro(trans-4-F)][Gly(cPr)][NMehhhLys(Me)]L[NMePhe(2-(4-MorPh),5-Cl)]; lactam 3-C) | 20 nM | 10 nM | 20 nM | 160 nM | 10 nM | 4750 nM |  |  | 
CC(C)C[C@@H]1NC(=O)[C@@H](N(C)C(=O)[C@@H](NC(=O)[C@@H]2C[C@@H](F)CN2C(=O)C2(C(F)(F)F)CC(F)(F)C2)C2CC2)CCCCCCCN(C)C(=O)[C@H](Cc2cc(Cl)ccc2-c2cnn(CCS(C)(=O)=O)c2)N(C)C1=O [Example 257] ({cBuCO(3,3-F2-1-CF3)}-[Pro(trans-4-F)][Gly(cPr)][NMehhhLys(Me)]L[X13]; lactam 3-C) | 20 nM | 10 nM | 20 nM | 120 nM | 10 nM | 13300 nM |  |  | 
CC(C)C[C@@H]1NC(=O)[C@@H](N(C)C(=O)[C@@H](NC(=O)[C@@H]2C[C@@H](F)CN2C(=O)C2(C(F)(F)F)CC(F)(F)C2)C2CC2)CCCCCCCN(C)C(=O)[C@H](Cc2cc(F)ccc2C2CC2)N(C)C1=O [Example 121] ({cBuCO(3,3-F2-1-CF3)}-[Pro(trans-4-F)][Gly(cPr)][NMehhhLys(Me)]L[X94]; lactam 3-C) | 50 nM | 70 nM | 20 nM | 130 nM | 40 nM | 7610 nM |  |  | 
CC(C)C[C@@H]1NC(=O)[C@@H](N(C)C(=O)[C@@H](NC(=O)[C@@H]2C[C@@H](F)CN2C(=O)C2(C(F)(F)F)CC(F)(F)C2)C2CC2)CCCCCCCN(C)C(=O)[C@H](Cc2cc(F)ccc2C2=C[C@H]3CC[C@@H](C2)N3C(=O)C(C)C)N(C)C1=O [Example 318] ({cBuCO(3,3-F2-1-CF3)}-[Pro(trans-4-F)][Gly(cPr)][NMehhhLys(Me)]L[X7]; lactam 3-C) | 20 nM | 10 nM | 20 nM | 280 nM | 10 nM | 9920 nM |  |  | 
CC(C)C[C@@H]1NC(=O)[C@@H](N(C)C(=O)[C@@H](NC(=O)[C@@H]2C[C@@H](F)CN2C(=O)C2(C(F)(F)F)CC(F)(F)C2)C2CC2)CCCCCCCN(C)C(=O)[C@H](Cc2cc(Cl)ccc2-c2ccn3ccnc3c2)N(C)C1=O [Example 236] ({cBuCO(3,3-F2-1-CF3)}-[Pro(trans-4-F)][Gly(cPr)][NMehhhLys(Me)]L[X19]; lactam 3-C) | 30 nM | 20 nM | 20 nM | 780 nM | 10 nM | 7330 nM |  |  | 
